Test results: US9951077B2, “Aminopyridazinone compounds as protein kinase inhibitors” (ETERNITY BIOSCIENCE INC., priority 2014, dated 2018)

Biological target: Btk (Homo sapiens (Human), UniProt Q06187)
Assay: Btk kinase assay (ADP-Glo)
Format: biochemical
Conditions: ATP 1.2 μM, 60 minutes, room temperature; read-out: BTK enzyme IC50
Description: The Btk kinase assay was performed using a ADP-Glo Btk kinase assay kit purchased from Promega (Madison, Wis.). The assay was conducted according to the protocols provided in the assay kit. In brief, the enzyme reaction was carried out in the kinase reaction buffer containing Btk (2 ng/μl), ATP (1.2 μM), poly GT peptide (0.3 μM), DTT (40 nM), MnCl2 (1.4 mM), and 1×kinase buffer (included in the kit) in the presence or absence of the tested articles at various concentrations in 384-well plate at room temperature (22±1° C.) for 60 minutes. The final reaction volume for each reaction was 10 μl. Then, 4 μl of ADP-Glo reagent (included in the kit) was added into the reaction and the plate was further incubated for another 40 minutes to terminate the reaction and deplete the remaining ATP. Finally, 10 μl of the kinase detection reagent was added into each reaction to simultaneously convert ADP to ATP and allow the newly synthesized ATP to be measured by a plate-reading luminometer (Victor X5 2030 multilabel reader, PerkinElmer). IC50 value was calculated using appropriate programs in GraphPad Prism by plotting the logarithm of the concentration versus percent inhibition as compared with a vehicle (DMSO) control.

Sequence of Btk (Q06187 whole entry): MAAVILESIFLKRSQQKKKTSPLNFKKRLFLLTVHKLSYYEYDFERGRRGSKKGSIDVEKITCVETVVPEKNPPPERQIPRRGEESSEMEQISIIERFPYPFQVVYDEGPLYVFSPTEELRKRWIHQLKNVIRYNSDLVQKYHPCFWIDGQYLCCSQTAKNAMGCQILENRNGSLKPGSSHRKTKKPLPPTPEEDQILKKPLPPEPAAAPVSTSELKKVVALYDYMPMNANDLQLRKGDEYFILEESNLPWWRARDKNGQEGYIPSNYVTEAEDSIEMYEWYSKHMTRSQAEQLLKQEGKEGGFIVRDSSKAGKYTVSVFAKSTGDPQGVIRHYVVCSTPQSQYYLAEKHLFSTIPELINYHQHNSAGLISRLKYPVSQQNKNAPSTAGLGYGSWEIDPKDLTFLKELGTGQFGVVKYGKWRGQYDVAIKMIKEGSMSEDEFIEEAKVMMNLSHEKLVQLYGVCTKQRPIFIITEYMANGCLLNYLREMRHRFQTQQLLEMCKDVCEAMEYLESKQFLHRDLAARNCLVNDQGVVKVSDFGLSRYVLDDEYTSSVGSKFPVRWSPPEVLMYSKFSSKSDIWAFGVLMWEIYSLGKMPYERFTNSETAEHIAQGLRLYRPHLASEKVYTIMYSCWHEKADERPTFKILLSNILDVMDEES

Structure (SMILES) | IC50 [nM]
C=CC(=O)N1CC(Cn2cc(-c3ccc(Oc4ccccc4)cc3)c3c(N)n[nH]c(=O)c32)C1 [Example 12, 4-amino-3-(4-phenoxyphenyl)-1-[(1-prop-2-enoylazetidin-3-yl)methyl]-6H-pyrrolo[2,3-d]pyridazin-7-one] | 10 to 1000
C=CC(=O)N1CCC[C@@H](n2cc(-c3ccc(Oc4ccc(Cl)c(Cl)c4)c(OC)c3)c3c(N)n[nH]c(=O)c32)C1 [Example 72, (R)-1-(1-acryloylpiperidin-3-yl)-4-amino-3-(4-(3,4-dichlorophenoxy)-3-methoxyphenyl)-1H-pyrrolo[2,3-d]pyridazin-7(6H)-one] | 10 to 1000
C=CC(=O)N1CCC[C@@H]1Cn1cc(-c2ccc(Oc3ccccc3)cc2)c2c(N)n[nH]c(=O)c21 [Example 7, 4-amino-3-(4-phenoxyphenyl)-1-[[(2R)-1-prop-2-enoylpyrrolidin-2-yl]methyl]-6H-pyrrolo[2,3-d]pyridazin-7-one] | 1000 to 100000
CCC(=O)N1CCCC(n2cc(-c3ccc(Oc4ccccc4)cc3)c3c(N)n[nH]c(=O)c32)C1 (centres unmarked) [Example 19, 4-amino-3-(4-phenoxyphenyl)-1-(1-propionylpiperidin-3-yl)-1H-pyrrolo[2,3-d]pyridazin-7(6H)-one] | 10 to 1000
C=CC(=O)Nc1cccc(-n2cc(-c3ccc(Oc4ccccc4)cc3)c3c(N)n[nH]c(=O)c32)c1 [Example 88, N-(3-(4-amino-7-oxo-3-(4-phenoxyphenyl)-6,7-dihydro-1H-pyrrolo[2,3-d]pyridazin-1-yl)phenyl)acrylamide] | ≤ 10
Nc1n[nH]c(=O)c2c1c(-c1ccc(Oc3ccccc3)cc1)cn2[C@@H]1CCCN(C(=O)CCl)C1 [Example 22, 4-amino-1-[(3R)-1-(2-chloroacetyl)-3-piperidyl]-3-(4-phenoxyphenyl)-6H-pyrrolo[2,3-d]pyridazin-7-one] | 10 to 1000
C=CC(=O)Nc1cccc(-n2cc(-c3ccc(Oc4ccccc4F)cc3)c3c(N)n[nH]c(=O)c32)c1 [Example 91, N-(3-(4-amino-3-(4-(2-fluorophenoxy)phenyl)-7-oxo-6,7-dihydro-1H-pyrrolo[2,3-d]pyridazin-1-yl)phenyl)acrylamide] | 10 to 1000
C=CC(=O)N1CCCC(n2cc(-c3ccc(Oc4ccccc4F)cc3)c3c(N)n[nH]c(=O)c32)C1 (centres unmarked) [Example 55, 1-(1-acryloylpiperidin-3-yl)-4-amino-3-(4-(2-fluorophenoxy)phenyl)-1H-pyrrolo[2,3-d]pyridazin-7(6H)-one] | ≤ 10
C=CC(=O)N1CCC[C@H](n2cc(-c3ccc(Oc4c(F)cccc4F)cc3)c3c(N)n[nH]c(=O)c32)C1 [Example 114, (S)-1-(1-acryloylpiperidin-3-yl)-4-amino-3-(4-(2,6-difluorophenoxy)phenyl)-1H-pyrrolo[2,3-d]pyridazin-7(6H)-one] | 10 to 1000
CN(C/C=C/C(=O)N1CCC[C@@H](n2cc(-c3ccc(Oc4ccccc4)cc3)c3c(N)n[nH]c(=O)c32)C1)C1CC1 [Example 29, 4-amino-1-[(3R)-1-[(E)-4-(cyclopropyl(methyl)amino)but-2-enoyl]-3-piperidyl]-3-(4-phenoxyphenyl)-6H-pyrrolo[2,3-d]pyridazin-7-one] | 10 to 1000
CC#CC(=O)N1CC[C@@H](n2cc(-c3ccc(Oc4c(F)cccc4Cl)cc3)c3c(N)n[nH]c(=O)c32)C1 [Example 94, (R)-4-amino-1-(1-(but-2-ynoyl)pyrrolidin-3-yl)-3-(4-(2-chloro-6-fluorophenoxy)phenyl)-1H-pyrrolo[2,3-d]pyridazin-7(6H)-one] | 10 to 1000
N#CN1CCCC(n2cc(-c3ccc(Oc4ccccc4F)cc3)c3c(N)n[nH]c(=O)c32)C1 (centres unmarked) [Example 108, 3-(4-amino-3-(4-(2-fluorophenoxy)phenyl)-7-oxo-6,7-dihydro-1H-pyrrolo[2,3-d]pyridazin-1-yl)piperidine-1-carbonitrile] | ≤ 10
CC(C)N(C)C/C=C/C(=O)N1CCC[C@@H](n2cc(-c3ccc(Oc4ccccc4)cc3)c3c(N)n[nH]c(=O)c32)C1 [Example 16, 4-amino-1-[(3R)-1-[(E)-4-[isopropyl(methyl)amino]but-2-enoyl]-3-piperidyl]-3-(4-phenoxyphenyl)-6H-pyrrolo[2,3-d]pyridazin-7-one] | ≤ 10
CCN(CC)C/C=C/C(=O)N1CCC[C@@H](n2cc(-c3ccc(Oc4ccccc4)cc3)c3c(N)n[nH]c(=O)c32)C1 [Example 27, 4-amino-1-[(3R)-1-[(E)-4-(diethylamino)but-2-enoyl]-3-piperidyl]-3-(4-phenoxyphenyl)-6H-pyrrolo[2,3-d]pyridazin-7-one] | ≤ 10
C=CC(=O)N1CCCC(n2cc(-c3ccc(Oc4cccc(Cl)c4)cc3)c3c(N)n[nH]c(=O)c32)C1 (centres unmarked) [Example 66, 1-(1-acryloylpiperidin-3-yl)-4-amino-3-(4-(3-chlorophenoxy)phenyl)-1H-pyrrolo[2,3-d]pyridazin-7(6H)-one] | 10 to 1000
CN(C)C/C=C/C(=O)N1CCC[C@@H](n2cc(-c3ccc(Oc4ccccc4Cl)cc3)c3c(N)n[nH]c(=O)c32)C1 [Example 71, 4-amino-3-[4-(2-chlorophenoxy)phenyl]-1-[(3R)-1-[(E)-4-(dimethylamino)but-2-enoyl]-3-piperidyl]-6H-pyrrolo[2,3-d]pyridazin-7-one] | ≤ 10
C=CC(=O)N1CCC[C@@H](n2cc(-c3ccc(Oc4ccccc4)cc3)c3c(N)n[nH]c(=O)c32)C1 [Example 1, (R)-1-(1-acryloylpiperidin-3-yl)-4-amino-3-(4-phenoxyphenyl)-1H-pyrrolo[2,3-d]pyridazin-7(6H)-one] | ≤ 10
N#CN1CCC[C@@H](n2c(Cl)c(-c3ccc(Oc4ccccc4F)cc3)c3c(N)n[nH]c(=O)c32)C1 [Example 86, (R)-3-(4-amino-2-chloro-3-(4-(2-fluorophenoxy)phenyl)-7-oxo-6,7-dihydro-1H-pyrrolo[2,3-d]pyridazin-1-yl)piperidine-1-carbonitrile] | 1000 to 100000
CC#CC(=O)N1C[C@H](OC)[C@@H](n2cc(-c3ccc(Oc4ccccc4F)cc3)c3c(N)n[nH]c(=O)c32)C1 [Example 98, 4-amino-1-((3S,4S)-1-(but-2-ynoyl)-4-methoxypyrrolidin-3-yl)-3-(4-(2-fluorophenoxy)phenyl)-1H-pyrrolo[2,3-d]pyridazin-7(6H)-one] | 10 to 1000
CC#CC(=O)N1CC[C@@H](n2cc(-c3ccc(Oc4ccccc4)cc3)c3c(N)n[nH]c(=O)c32)C1 [Example 97, (R)-4-amino-1-(1-(but-2-ynoyl)pyrrolidin-3-yl)-3-(4-phenoxyphenyl)-1H-pyrrolo[2,3-d]pyridazin-7(6H)-one] | 10 to 1000
C=CC(=O)N1CCC[C@@H](n2cc(-c3ccc(Oc4ccccc4F)cc3)c3c(N)n[nH]c(=O)c32)C1 [Example 56, (R)-1-(1-acryloylpiperidin-3-yl)-4-amino-3-(4-(2-fluorophenoxy)phenyl)-1H-pyrrolo[2,3-d]pyridazin-7(6H)-one] | ≤ 10
CCCC(=O)N1CC[C@@H](n2cc(-c3ccc(Oc4c(F)cccc4F)cc3)c3c(N)n[nH]c(=O)c32)C1 [Example 118, (R)-4-amino-1-(1-butyrylpyrrolidin-3-yl)-3-(4-(2,6-difluorophenoxy)phenyl)-1H-pyrrolo[2,3-d]pyridazin-7(6H)-one] | 1000 to 100000
CCC(=O)N1CCC[C@@H](n2cc(-c3ccc(Oc4c(F)cccc4F)cc3)c3c(N)n[nH]c(=O)c32)C1 [Example 115, (R)-4-amino-3-(4-(2,6-difluorophenoxy)phenyl)-1-(1-propionylpiperidin-3-yl)-1H-pyrrolo[2,3-d]pyridazin-7(6H)-one] | 10 to 1000
CNC/C=C/C(=O)N1CCC[C@@H](n2cc(-c3ccc(Oc4ccccc4)cc3)c3c(N)n[nH]c(=O)c32)C1 [Example 18, 4-amino-1-[(3R)-1-[(E)-4-(methylamino)but-2-enoyl]-3-piperidyl]-3-(4-phenoxyphenyl)-6H-pyrrolo[2,3-d]pyridazin-7-one] | ≤ 10
C=CC(=O)N[C@H]1CC[C@H](n2cc(-c3ccc(Oc4ccccc4F)cc3)c3c(N)n[nH]c(=O)c32)CC1 [Example 105, N-((1r,4r)-4-(4-amino-3-(4-(2-fluorophenoxy)phenyl)-7-oxo-6,7-dihydro-1H-pyrrolo[2,3-d]pyridazin-1-yl)cyclohexyl)acrylamide] | 10 to 1000
CC#CC(=O)N1CCC[C@@H](n2cc(-c3ccc(Oc4c(F)cccc4F)cc3)c3c(N)n[nH]c(=O)c32)C1 [Example 117, (R)-4-amino-1-(1-(but-2-ynoyl)piperidin-3-yl)-3-(4-(2,6-difluorophenoxy)phenyl)-1H-pyrrolo[2,3-d]pyridazin-7(6H)-one] | 10 to 1000
C=CC(=O)N1CCCC(n2cc(-c3ccc(Oc4ccc(Cl)cc4)cc3)c3c(N)n[nH]c(=O)c32)C1 (centres unmarked) [Example 64, 1-(1-acryloylpiperidin-3-yl)-4-amino-3-(4-(4-chlorophenoxy)phenyl)-1H-pyrrolo[2,3-d]pyridazin-7(6H)-one] | 10 to 1000
C=CC(=O)N1CCC[C@@H](n2nc(-c3ccc(Oc4ccccc4)cc3)c3c(N)n[nH]c(=O)c32)C1 [Example 110, (R)-1-(1-acryloylpiperidin-3-yl)-4-amino-3-(4-phenoxyphenyl)-1H-pyrazolo[3,4-d]pyridazin-7(6H)-one] | 10 to 1000
CN(C)C/C=C/C(=O)N1CCCC(n2cc(-c3ccc(Oc4cccc(F)c4)cc3)c3c(N)n[nH]c(=O)c32)C1 (centres unmarked) [Example 63, 4-amino-1-[1-[(E)-4-(dimethylamino)but-2-enoyl]-3-piperidyl]-3-[4-(3-fluorophenoxy)phenyl]-6H-pyrrolo[2,3-d]pyridazin-7-one] | ≤ 10
